Experimental data from PMC12197871 (Protein Science : A Publication of the Protein Society, 2025).
Entries after “also recorded” stand apart in the source; their conditions may differ.

Columns and labels:
GsLDH [1] = biological target: T1, GsLDH (Geobacillus stearothermophilus, UniProt P00344); test: Isothermal titration calorimetry of cofactor binding to GsLDH; settings: for K B × 10^5 / TΔS B / ΔG B / ΔH B / binding stoichiometry n / Kd: presence of FBP; for K B × 10^5 / TΔS B / ΔG B / ΔH B / Kd: 30°C; for enthalpy change on titration of the enzyme: absence of FBP; for Kd: K d
GsLDH [2] = biological target: T1, GsLDH; test: GsLDH kinetic studies; type: biochemical; settings: WT GsLDH

T1 sequence (P00344 whole entry): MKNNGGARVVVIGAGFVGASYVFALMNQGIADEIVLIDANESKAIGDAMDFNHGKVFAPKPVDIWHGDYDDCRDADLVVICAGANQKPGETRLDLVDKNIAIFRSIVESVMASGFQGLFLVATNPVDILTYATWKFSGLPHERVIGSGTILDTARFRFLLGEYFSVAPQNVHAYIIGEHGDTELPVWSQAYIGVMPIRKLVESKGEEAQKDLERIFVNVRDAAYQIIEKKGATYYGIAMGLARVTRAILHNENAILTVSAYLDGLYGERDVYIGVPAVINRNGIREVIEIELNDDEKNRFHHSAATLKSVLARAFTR

K B × 10^5 (GsLDH [1]; WT) | TΔS B (GsLDH [1]; WT) [kcal/mol] | ΔG B (GsLDH [1]; WT) [kcal/mol] | ΔH B (GsLDH [1]; WT) [kcal/mol] | binding stoichiometry n (GsLDH [1]) | fold decrease of K m for pyruvate in the presence of FBP (GsLDH [2]) [fold] | fold improvement of catalytic efficiency (k cat/K m) in the presence of FBP (GsLDH [2]) [fold] | Kd (GsLDH [1]; WT with pyruvate) [µM] | Kd (GsLDH [1]; WT) [µM] | K B × 10^5 (GsLDH [1]; WT with pyruvate) | TΔS B (GsLDH [1]; WT with pyruvate) [kcal/mol] | ΔG B (GsLDH [1]; WT with pyruvate) [kcal/mol] | ΔH B (GsLDH [1]; WT with pyruvate) [kcal/mol] | Molecule | enthalpy change on titration of the enzyme (GsLDH [1])
8 ± 2 10^5 M^−1 | -50.8 | -8.2 | -59 ± 4 | ~1 |  |  |  |  |  |  |  |  | reduced nicotinamide adenine dinucleotide [NADH] | did not result in significant enthalpy changes; also recorded: too low to be detected
 |  |  |  |  | 5.6 | 3.3 |  |  |  |  |  |  | O=C(COP(=O)(O)O)[C@@H](O)[C@H](O)[C@H](O)COP(=O)(O)O [FBP, fructose 1,6‐bisphosphate] | 
3 ± 2 10^5 M^−1 | -134.4 | -7.6 | -142 ± 20 | ~1 |  |  | 1.6 | 3 | 6 ± 2 10^5 M^−1 | -37.0 | -8.0 | -45 ± 2 | NC(=O)c1ccc[n+]([C@@H]2O[C@H](COP(=O)([O-])OP(=O)(O)OC[C@H]3O[C@@H](n4cnc5c(N)ncnc54)[C@H](O)[C@@H]3O)[C@@H](O)[C@H]2O)c1 [NAD^+, oxidized nicotinamide adenine dinucleotide] | did not result in significant enthalpy changes
